Measured values as given in patent US20200339544A1 (JOINT STOCK COMPANY "BIOCAD", priority 2017, published 2020).
Read-outs that look alike come from different tables or passages of the source. Marks after values point to notes of the source that are not given here.

Experiments:
[1] = Chemical stability in human blood plasma; format: in vitro ADME; settings: pooled human blood plasma; 10 μm; 4 hours at 37° C.; substance amount remaining
Description: 2) Determination of chemical stability in human blood plasma.
Determination of stability in human blood plasma was performed using pooled human blood plasma taken from ten healthy donors. The initial candidate solution (10 mM in DMSO) was diluted with pooled blood plasma to a concentration of 10 μm (test solution). The test solution was incubated in a dry block thermostat for 4 hours at 37° C. HPLC with Agilent 1200 liquid chromatography system (Agilent, USA) was employed to determine peak areas of the compounds in test samples, said peak areas corresponding to the initial test time (prior to incubation) and the final test time (after incubation in a dry block thermostat for 4 hours at 37° C.), proteins were preliminarily precipitated with acetonitrile. We used gradient elution (1 mL/min flow rate). Substance amount in % in a sample after thermostatting was determined.
The stability of the compounds was estimated.

[2] = Enzyme stability in human liver S9 fractions; format: in vitro ADME; settings: 0.5 mg/mL pooled human liver S9 fractions; 10 μM compound; 37° C.; pH 7.4; read-out: Stability in liver S9 fractions, Clint
Description: Determination of enzyme stability.
Measuring of candidate enzyme stability enabled estimation of the stability of the compounds towards the action of liver enzymes.
Enzyme degradation rate was measured by incubating the reaction mixture in a dry block thermostat at 37° C., said reaction mixture comprising 0.5 mg/mL of pooled human liver S9 fractions (XenoTech, USA, cat # H0610), 10 μM compound, 2 mM β-nicotinamide adenine dinucleotide (Carbosynth, UK, cat # NN10871) and 4 mM magnesium chloride in 0.1 M sodium-phosphate buffer, pH=7.4. The reaction was quenched with acetonitrile (100 μL of acetonitrile/100 μL of the reaction mixture). After quenching, the samples were centrifuged at 10000 rpm for 10 minutes. Supernatant fluid was tested by chromatographic technique using Agilent1200 (Agilent, USA). We used gradient elution (1 mL/min flow rate). A graph of the logarithm of substance's peak area as a function of time was made. The dependent factor of the line corresponded to the elimination rate constant K based on which the drug's half-life T½ and intrinsic clearance CLint were calculated:
Based on the data obtained, candidate enzyme stability in human liver S9 fractions was determined (see Table 11).

WT EGFR (Wild-Type EGFR) = target: T1, WT EGFR (Wild-Type EGFR) (Homo sapiens, UniProt P00533); test: Inhibition of WT EGFR kinase activity (ADP-Glo); format: biochemical
T1 construct: purchased SignalChem
Description: (§1) To assess IC50 values of the compounds disclosed herein, a biochemical assay of inhibition of kinase activity in a non-cellular system and a functional cellular anti-proliferation assay were used.
(§2) To assess inhibition of WT EGFR (Wild-Type EGFR), DM EGFR (DoubleMutantEGFR, L828R/T790M) kinase activity, SignalChem kinase system and ADP-Glo™ Kinase Assay (V9102, Promega) detection kit were used.
(§3) The measurements were carried out in a 25 μL reaction volume using a 96-well plate. […] The solution of 0.5 mg/mL peptide substrate and 50 μM ATP in the same buffer were added; the solution was incubated for 180 minutes at 37° C. To detect the amount of ATP taken up during the kinase reaction, the ADP Glo Detection Kit (V9102, Promega) was used. The luminescence was measured with the Infinite M200Pro plate spectrophotometer (Tecan, Switzerland). IC50 values were calculated using Magellan 7.2 software (Tecan, Switzerland) approximating experimental points by four-parameter logistic model with the optimization by Levenberg-Marquardt (Table 14).

[3] = target: T2, DM EGFR (DoubleMutantEGFR, L828R/T790M) (Homo sapiens, UniProt P00533, L858R/T790M); test: Inhibition of DM EGFR kinase activity (ADP-Glo); format: biochemical; settings: for IC50: inhibition of kinase activity, EGFR DM (L828R/T790M); for SI, IC50(WT)/IC50(DM): selectivity index, kinase EGFR WT vs EGFR DM
T2 construct: purchased SignalChem
Description: as §1, §2, §3

[4] = system: A549 (lung adenocarcinoma, WT); test: Antiproliferative activity on A549 cells (Alamar Blue); format: cell-based; settings: Homo sapiens, antiproliferative test
Description: (§4) Antiproliferative activity of EGFR inhibitors (Tables 15 and 16) was measured in cell-based bioassay on continuous epithelial cell cultures: A549 (lung adenocarcinoma, ATCC® CRM-CCL-185™—WT), HCC827 (lung adenocarcinoma, ATCC® CRL-2868™—SM (SingleMutantEGFR, exon19delE746-A750)) and H1975 (lung adenocarcinoma, ATCC® CRL-5908™—DM (DoubleMutantEGFR, L828R/T790M)) using cell viability reagent Alamar Blue (ThermoFisher, # DAL1100). Cells were cultured in 10% FBS-supplemented (Gibco, #16140071) RPMI-1640 (PanEco, S330p) for at least 1 passage after thawing, washed with PBS and passaged in 96-well culture plates (3599, Corning) with RPMI-1640 growth medium supplemented with 2% FBS in an amount of 5*10^3 cells/well for A549, 10*10^3 cells/well for HCC827 and 15*10^3 cells/well for H1975 in 100 μL, and incubated at 37° C. in an incubator (Thermo Forma, USA) under 5% of CO2 for 16-18 h for cell attachment.
(§5) The test compounds were dissolved in DMSO in the selected range of concentrations and transferred to RPMI-1640 medium (PanEco, S330p) supplemented with 2% FBS. After adding 50 μl of the prepared dilutions to the cells, the incubation mixture contained the final concentrations of the test substances and no more than 1% DMSO. The plates were Incubated at 37° C. for 72 h. After incubation, 15 μl of Alamar Blue vital dye (ThermoFisher, # DAL1100) was added to each well. The plates were shaken on an orbital shaker (Biosan, Latvia) and further incubated for 3-5 h in a CO2 incubator (Thermo Forma, USA). Number of living cells was estimated using a plate spectrophotometer Infinite M200Pro, (Tecan, Switzerland) measuring fluorescent signal at the excitation wavelength (λEx) of 540 nm and emission wavelength (λEm) of 590 nm.
IC50 was calculated using Magellan 7.2 software (Tecan, Switzerland) approximating experimental points by four-parameter logistic model with the optimization by Levenberg-Marquardt.
(§6) The ratio between IC50 for cell lines containing wild-type EGFR (A549) and IC50 for cell lines containing target mutation L828R/T790M (H1975) is the selectivity index (SI): […]

[5] = system: H1975 (lung adenocarcinoma, DM, L828R/T790M); test: Antiproliferative activity on H1975 cells (Alamar Blue); format: cell-based; settings: for IC50: Homo sapiens, NCI-H1975, H1975 cells; for SI IC50(A549)/IC50(DM): selectivity index, A549 vs H1975 cells
Description: as §4, §5
IC50 was calculated using Magellan 7.2 software (Tecan, Switzerland) approximating experimental points by four-parameter logistic model with the optimization by Levenberg-Marquardt. […]
as §6

[6] = General cytotoxicity on HepG2 cells; format: cell-based; settings: human; general cytotoxicity, HepG2 cells, 72 hours, average of several tests
Description: (§7) The CC50 values were determined in the test for General cytotoxicity on HepG2 cells (rhepatocellular carcinoma, ATCC® HB-8065™) (Table 16). The cells were subcultured in DMEM medium (PanEco, S420p) supplemented with 10% FBS (Gibco, #16140071) for at least 1 passage after thawing, washed with PBS and passaged in 96-well culture plates (3599, Corning) at a concentration of 2*10^4 cells/100 μL per well, and incubated for 16-18 h. The test substances were titrated in DMSO and transferred to DMEM (PanEco, S420p) medium supplemented with 2% FBS, added to the cells and incubated at 37° C. for 72 hours; viability of the cells was then assessed using Alamar Blue dye (ThermoFisher, # DAL1100). CC50 was determined similarly to IC50.
(§8) The ratio between CC50 for HepG2 cell line and IC50 for H1975 cell line is the therapeutic index (TI): […]

HepG2 cells = test: General cytotoxicity on HepG2 cells; format: cell-based; settings: therapeutic index, CC50 HepG2 / IC50 H1975
Description: as §7, §8

[7] = average values obtained in several tests, Table 16, read-out: H1975 (DM) IC50
[8] = antiproliferative test, Table 15, read-out: IC50 H1975 (DM)

Row | SMILES | Stability in blood plasma, % [1] [%] | Intrinsic clearance in human liver S9 fractions at 10 µM [2] [µL/min/mg] | IC50 (WT EGFR (Wild-Type EGFR)) [nM] | IC50 [3] [nM] | SI, IC50(WT)/IC50(DM) [3] | IC50 [4] [nM] | IC50 [5, 7] [nM] | IC50 [5, 8] [nM] | SI IC50(A549)/IC50(DM) [5] | CC50 at 72 h [6] [nM] | TI, CC50/IC50 (HepG2 cells)
1 | C=CC(=O)Nc1cc(Nc2nccc(C(=O)c3ccc(NCCO)cc3)n2)c(OC)cc1N(C)CCN(C)C.O=CO [EGFR_3365_106, N-(2-((2-(dimethylamino)ethyl)(methyl)amino)-5-((4-(4-((2-hydroxyethyl)amino)benzoyl)pyrimidin-2-yl)amino)-4-methoxyphenyl)acrylamide formate] | 95.2 | 6.7 | 108 | 5.5 | 19.68 | > 20000 | 33.3 | 33.3 | >601 | > 50000 | >1501**
2 | C=CC(=O)Nc1cc(Nc2nccc(C(=O)c3ccc(N4CCC[C@H](O)C4)cc3)n2)c(OC)cc1N(C)CCN(C)C [EGFR_3365_108, (S)-N-(2-((2-(dimethylamino)ethyl)(methyl)amino)-5-((4-(4-(3-hydroxypiperidin-1-yl)benzoyl)pyrimidin-2-yl)amino)-4-methoxyphenyl)acrylamide] | 100.0 | 12.8 | 25.4 | 1.71 | 14.85 | 21400 | 4.35 | 4.35 | 4925 | 47900 | 11026
3 | C=CC(=O)Nc1cc(Nc2nccc(C(=O)c3ccc(N4CCC[C@@H](O)C4)cc3)n2)c(OC)cc1N(C)CCN(C)C [EGFR_3365_109, (R)-N-(2-((2-(dimethylamino)ethyl)(methyl)amino)-5-((4-(4-(3-hydroxypiperidin-1-yl)benzoyl)pyrimidin-2-yl)amino)-4-methoxyphenyl)acrylamide] | 98.2 | 14.8 | 25.2 | 3.14 | 8.03 | 17700 | 8.66 | 8.66 | 2043 | 45400 | 5245
4 | C=CC(=O)Nc1cc(Nc2nccc(C(=O)c3ccc(N4CC[C@H](O)C4)cc3)n2)c(OC)cc1N(C)CCN(C)C.O=CO [EGFR_3365_112, (S)-N-(2-((2-(dimethylamino)ethyl)(methyl)amino)-5-((4-(4-(3-hydroxypyrrolidin-1-yl)benzoyl)pyrimidin-2-yl)amino)-4-methoxyphenyl)acrylamide formate] | 96.9 | 6.8 | 23.5 | 2.05 | 11.48 | 37300 | 15.3 | 15.3 | 2443 | > 50000 | >3267
5 | C=CC(=O)Nc1cc(Nc2nccc(C(=O)c3ccc(N4CC[C@@H](O)C4)cc3)n2)c(OC)cc1N(C)CCN(C)C [EGFR_3365_113, (R)-N-(2-((2-(dimethylamino)ethyl)(methyl)amino)-5-((4-(4-(3-hydroxypyrrolidin-1-yl)benzoyl)pyrimidin-2-yl)amino)-4-methoxyphenyl)acrylamide] | 94.0 | 10.5 | 43.4 | 2.54 | 17.09 | 13600 | 4.42 | 4.42 | 3073 | 46300 | 10481
6 | C=CC(=O)Nc1cc(Nc2nccc(C(=O)c3ccc(N4CC[C@H](OC)C4)cc3)n2)c(OC)cc1N(C)CCN(C)C [EGFR_3365_114, (S)-N-(2-((2-(dimethylamino)ethyl)(methyl)amino)-4-methoxy-5-((4-(4-(3-methoxypyrrolidin-1-yl)benzoyl)pyrimidin-2-yl)amino)phenyl)acrylamide] | 93.9 | 16 | 51.4 | 2.02 | 25.37 | 14200 | 12.1 | 12.1 | 1175 | 23800 | 1970
